Data: ChEMBL document CHEMBL4011656, “Discovery and Optimization of Chromeno[2,3-c]pyrrol-9(2H)-ones as Novel Selective and Orally Bioavailable Phosphodiesterase 5 Inhibitors for the Treatment of Pulmonary Arterial Hypertension” (J Med Chem, 2017)

Experiments:
[1] = Cmax in Sprague-Dawley rat at 5 mg/kg, po by LC-MS/MS analysis; assay type: ADME, organism-based; parameters: dose 5 mg/kg, route oral; settings: in vivo
Mus musculus [2] = experiment: Acute toxicity in Kunming mouse assessed as effect on food consumption at 1000 to 1500 mg/kg, po administered as single dose measured up to 2 weeks post dose; assay type: organism-based; settings: in vivo, 336 h
Liver [3] = experiment: Intrinsic clearance in rat liver microsomes at 0.5 uM; assay type: ADME, microsome
Liver [4] = experiment: Drug metabolism in rat liver microsomes assessed as metabolic rate; assay type: ADME, microsome
[5] = Half life in Sprague-Dawley rat at […], iv by LC-MS/MS analysis; assay type: ADME, organism-based; settings: in vivo
[6] = AUC (0 to t) in Sprague-Dawley rat at 5 mg/kg, po by LC-MS/MS analysis; assay type: ADME, organism-based; settings: in vivo
[7] = target: High affinity 3',5'-cyclic-AMP phosphodiesterase 7A (Homo sapiens, UniProt Q13946); experiment: Inhibition of PDE7A1 (130 to 482 residues) (unknown origin) expressed in Escherichia coli BL21(DE3) using [3H]cGMP or [3H]cAMP as substrate after 15 mins by liquid scintillation counting method
Chain of High affinity 3',5'-cyclic-AMP phosphodiesterase 7A (Q13946 whole entry, the tested form may be a part): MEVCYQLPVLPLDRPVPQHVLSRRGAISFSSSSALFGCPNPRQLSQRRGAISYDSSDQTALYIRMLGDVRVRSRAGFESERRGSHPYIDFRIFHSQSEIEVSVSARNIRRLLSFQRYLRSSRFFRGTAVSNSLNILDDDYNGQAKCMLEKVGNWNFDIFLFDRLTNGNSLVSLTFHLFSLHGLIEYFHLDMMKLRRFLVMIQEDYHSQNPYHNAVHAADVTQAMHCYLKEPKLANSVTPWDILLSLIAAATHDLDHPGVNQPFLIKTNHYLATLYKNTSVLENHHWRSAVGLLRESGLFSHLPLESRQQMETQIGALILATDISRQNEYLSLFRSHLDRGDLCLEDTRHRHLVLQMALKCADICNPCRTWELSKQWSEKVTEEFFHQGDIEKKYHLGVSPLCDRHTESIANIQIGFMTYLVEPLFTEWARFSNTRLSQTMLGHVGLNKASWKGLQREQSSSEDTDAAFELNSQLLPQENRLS

[8] = Acute toxicity in Kunming mouse administered as single oral dose measured up to 2 weeks post dose; settings: in vivo
Liver [9] = experiment: Intrinsic clearance in human liver microsomes at 0.5 uM; assay type: ADME, microsome
[10] = MRT (0 to t) in Sprague-Dawley rat at […], iv by LC-MS/MS analysis; assay type: ADME, organism-based; settings: in vivo
[11] = Half life in rat liver microsomes at 0.5 uM; assay type: ADME, microsome
[12] = Half life in human microsomes at 0.5 uM; assay type: ADME, microsome; settings: liver microsomes
[13] = target: 3',5'-cyclic-AMP phosphodiesterase 4D (Homo sapiens, UniProt Q08499); experiment: Inhibition of PDE4D2 (86 to 413 residues) (unknown origin) expressed in Escherichia coli BL21(DE3) using [3H]cAMP or [3H]cGMP as substrate after 15 mins by liquid scintillation counting method
Chain of 3',5'-cyclic-AMP phosphodiesterase 4D (Q08499 whole entry, the tested form may be a part): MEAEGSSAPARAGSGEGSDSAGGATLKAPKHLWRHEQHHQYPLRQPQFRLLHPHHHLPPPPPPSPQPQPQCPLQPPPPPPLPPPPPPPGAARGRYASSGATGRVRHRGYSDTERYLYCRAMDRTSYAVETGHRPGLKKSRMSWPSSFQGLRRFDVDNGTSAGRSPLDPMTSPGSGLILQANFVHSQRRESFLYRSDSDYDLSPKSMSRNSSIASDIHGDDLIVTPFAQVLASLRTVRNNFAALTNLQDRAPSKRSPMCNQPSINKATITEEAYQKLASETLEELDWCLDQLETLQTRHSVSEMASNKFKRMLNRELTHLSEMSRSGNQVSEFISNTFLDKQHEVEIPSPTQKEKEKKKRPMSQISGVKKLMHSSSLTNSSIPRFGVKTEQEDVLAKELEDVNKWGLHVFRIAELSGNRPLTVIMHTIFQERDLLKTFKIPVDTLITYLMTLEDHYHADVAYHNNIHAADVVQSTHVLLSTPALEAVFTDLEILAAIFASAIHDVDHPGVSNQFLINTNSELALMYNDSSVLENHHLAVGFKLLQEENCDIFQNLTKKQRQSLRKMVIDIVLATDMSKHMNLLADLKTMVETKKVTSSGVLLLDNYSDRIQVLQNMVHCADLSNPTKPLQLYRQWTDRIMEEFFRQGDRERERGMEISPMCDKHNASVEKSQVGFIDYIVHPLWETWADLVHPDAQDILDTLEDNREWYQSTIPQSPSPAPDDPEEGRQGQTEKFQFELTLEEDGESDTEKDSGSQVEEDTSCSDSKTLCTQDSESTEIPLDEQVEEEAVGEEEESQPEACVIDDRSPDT

[14] = MRT (0 to t) in Sprague-Dawley rat at 5 mg/kg, po by LC-MS/MS analysis; assay type: ADME, organism-based; settings: in vivo
[15] = Oral bioavailability in Sprague-Dawley rat at 5 mg/kg by LC-MS/MS analysis; assay type: ADME, organism-based; settings: in vivo
Rattus norvegicus [16] = experiment: Toxicity in Sprague-Dawley rat assessed as effect on body weight up to 300 mg/kg, po daily for 2 weeks; assay type: organism-based; settings: in vivo, 336 h
[17] = AUC (0 to t) in Sprague-Dawley rat at […], iv by LC-MS/MS analysis; assay type: ADME, organism-based; settings: in vivo
[18] = Hepatic clearance in human microsomes at 0.5 uM; assay type: ADME, microsome; settings: liver microsomes
[19] = Cmax in Sprague-Dawley rat at […], iv by LC-MS/MS analysis; assay type: ADME, organism-based; parameters: dose 2.5 mg/kg, route intravenous; settings: in vivo
[20] = Tmax in Sprague-Dawley rat at 5 mg/kg, po by LC-MS/MS analysis; assay type: ADME, organism-based; settings: in vivo
[21] = Apparent clearance in human liver microsomes at 0.5 uM; assay type: ADME, microsome; settings: read-out: CLH(app)
Mus musculus [22] = experiment: Acute toxicity in Kunming mouse assessed as effect on body weight at 1000 to 1500 mg/kg, po administered as single dose measured up to 2 weeks post dose; assay type: organism-based; settings: in vivo, 336 h
Cytochrome P450 3A4 = Cytochrome P450 3A4 (Homo sapiens, UniProt P08684); experiment: Inhibition of CYP3A4 in human microsomes in presence of NADPH; assay type: ADME
Chain of Cytochrome P450 3A4 (P08684 whole entry): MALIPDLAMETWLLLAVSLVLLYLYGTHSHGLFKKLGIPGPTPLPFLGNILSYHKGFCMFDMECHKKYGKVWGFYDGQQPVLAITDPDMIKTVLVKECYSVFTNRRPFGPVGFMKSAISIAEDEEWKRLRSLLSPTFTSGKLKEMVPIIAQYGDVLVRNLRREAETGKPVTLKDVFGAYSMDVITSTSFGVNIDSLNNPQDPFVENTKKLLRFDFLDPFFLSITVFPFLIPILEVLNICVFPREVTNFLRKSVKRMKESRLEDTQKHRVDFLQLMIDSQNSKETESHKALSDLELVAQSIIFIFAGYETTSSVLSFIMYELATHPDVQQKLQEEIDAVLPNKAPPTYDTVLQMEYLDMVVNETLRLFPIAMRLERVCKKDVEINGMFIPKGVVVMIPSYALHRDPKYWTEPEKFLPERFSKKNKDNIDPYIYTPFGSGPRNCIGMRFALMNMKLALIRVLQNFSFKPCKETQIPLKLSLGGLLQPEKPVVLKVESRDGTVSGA

Mus musculus [23] = experiment: Acute toxicity in Kunming mouse assessed as effect on water consumption at 1000 to 1500 mg/kg, po administered as single dose measured up to 2 weeks post dose; assay type: organism-based; settings: in vivo, 336 h
Liver [24] = experiment: Drug metabolism in human liver microsomes assessed as metabolic rate; assay type: ADME, microsome
Rattus norvegicus [25] = experiment: Reduction in MCT-induced increase in mean pulmonary arterial pressure in Wistar rat model of monocrotaline pulmonary arterial hypertension assessed as mean pulmonary arterial pressure at 5 mg/kg, po for 3 weeks (reference value: 32.74 mmHg); assay type: functional
Rattus norvegicus [26] = experiment: Toxicity in Sprague-Dawley rat assessed as overt toxicity up to 300 mg/kg, po daily for 2 weeks; assay type: organism-based; settings: in vivo, 336 h
[27] = Hepatic clearance in rat liver microsomes at 0.5 uM; assay type: ADME, microsome
[28] = target: Rod cGMP-specific 3',5'-cyclic phosphodiesterase subunit alpha (Homo sapiens, UniProt P16499); experiment: Inhibition of PDE6A (484 to 817 residues) (unknown origin) expressed in Escherichia coli BL21(DE3) using [3H]cGMP or [3H]cAMP as substrate after 15 mins by liquid scintillation counting method
Chain of Rod cGMP-specific 3',5'-cyclic phosphodiesterase subunit alpha (P16499 whole entry, the tested form may be a part): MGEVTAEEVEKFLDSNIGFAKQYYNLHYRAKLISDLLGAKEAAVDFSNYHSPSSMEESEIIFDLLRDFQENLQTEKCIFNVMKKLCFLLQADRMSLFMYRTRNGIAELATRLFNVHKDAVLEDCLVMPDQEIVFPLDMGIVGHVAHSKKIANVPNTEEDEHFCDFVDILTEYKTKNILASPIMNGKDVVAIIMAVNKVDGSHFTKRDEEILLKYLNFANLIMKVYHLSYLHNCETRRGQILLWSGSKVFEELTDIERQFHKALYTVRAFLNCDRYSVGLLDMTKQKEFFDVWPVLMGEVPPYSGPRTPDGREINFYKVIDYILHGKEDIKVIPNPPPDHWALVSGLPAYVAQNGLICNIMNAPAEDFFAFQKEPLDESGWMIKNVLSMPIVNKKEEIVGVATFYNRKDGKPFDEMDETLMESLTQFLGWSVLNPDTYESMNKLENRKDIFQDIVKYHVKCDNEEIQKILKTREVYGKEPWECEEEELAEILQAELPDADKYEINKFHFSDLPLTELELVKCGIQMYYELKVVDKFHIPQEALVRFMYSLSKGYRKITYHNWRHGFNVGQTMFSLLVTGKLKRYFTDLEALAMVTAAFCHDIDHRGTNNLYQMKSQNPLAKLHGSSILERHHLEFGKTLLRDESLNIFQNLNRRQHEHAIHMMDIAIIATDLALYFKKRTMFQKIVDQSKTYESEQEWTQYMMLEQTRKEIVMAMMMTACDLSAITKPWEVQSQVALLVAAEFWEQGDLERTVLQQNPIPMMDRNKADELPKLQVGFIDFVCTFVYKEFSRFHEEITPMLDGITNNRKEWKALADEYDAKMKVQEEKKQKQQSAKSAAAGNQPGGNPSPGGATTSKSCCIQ

[29] = AUC (0 to infinity) in Sprague-Dawley rat at […], iv by LC-MS/MS analysis; assay type: ADME, organism-based; parameters: dose 2.5 mg/kg, time infinity, route intravenous; settings: in vivo
[30] = target: cAMP and cAMP-inhibited cGMP 3',5'-cyclic phosphodiesterase 10A (Homo sapiens, UniProt Q9Y233); experiment: Inhibition of PDE10A (449 to 770 residues) (unknown origin) expressed in Escherichia coli BL21(DE3) using [3H]cGMP or [3H]cAMP as substrate after 15 mins by liquid scintillation counting method
[31] = target: cGMP-dependent 3',5'-cyclic phosphodiesterase (Homo sapiens, UniProt O00408); experiment: Inhibition of PDE2A (580 to 919 residues) (unknown origin) expressed in Escherichia coli BL21(DE3) using [3H]cGMP or [3H]cAMP as substrate after 15 mins by liquid scintillation counting method
Chain of cGMP-dependent 3',5'-cyclic phosphodiesterase (O00408 whole entry, the tested form may be a part): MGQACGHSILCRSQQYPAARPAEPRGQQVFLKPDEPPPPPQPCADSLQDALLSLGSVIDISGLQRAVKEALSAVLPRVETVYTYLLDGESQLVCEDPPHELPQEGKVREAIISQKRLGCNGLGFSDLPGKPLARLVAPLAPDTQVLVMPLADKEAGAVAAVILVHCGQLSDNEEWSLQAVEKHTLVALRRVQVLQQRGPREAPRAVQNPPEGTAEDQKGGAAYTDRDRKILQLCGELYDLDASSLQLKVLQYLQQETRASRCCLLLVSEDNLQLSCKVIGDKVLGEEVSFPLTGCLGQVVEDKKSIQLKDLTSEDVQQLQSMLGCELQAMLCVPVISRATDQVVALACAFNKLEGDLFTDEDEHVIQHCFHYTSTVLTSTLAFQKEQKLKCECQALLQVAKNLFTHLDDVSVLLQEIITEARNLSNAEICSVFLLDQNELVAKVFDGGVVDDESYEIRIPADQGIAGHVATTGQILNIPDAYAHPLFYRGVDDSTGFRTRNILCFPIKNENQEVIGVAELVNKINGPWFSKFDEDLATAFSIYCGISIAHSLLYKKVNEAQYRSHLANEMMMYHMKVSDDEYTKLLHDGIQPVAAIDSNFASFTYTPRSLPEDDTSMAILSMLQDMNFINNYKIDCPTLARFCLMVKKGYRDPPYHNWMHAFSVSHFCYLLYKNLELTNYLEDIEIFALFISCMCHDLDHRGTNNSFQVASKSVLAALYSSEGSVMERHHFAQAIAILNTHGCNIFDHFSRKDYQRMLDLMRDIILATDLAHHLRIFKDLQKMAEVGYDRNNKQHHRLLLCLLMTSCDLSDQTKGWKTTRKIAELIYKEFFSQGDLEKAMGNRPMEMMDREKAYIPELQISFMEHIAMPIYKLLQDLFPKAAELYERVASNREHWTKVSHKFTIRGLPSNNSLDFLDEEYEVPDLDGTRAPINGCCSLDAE

Cytochrome P450 1A2 = target: T1, Cytochrome P450 1A2 (Homo sapiens, UniProt P05177); experiment: Inhibition of CYP1A2 in human microsomes in presence of NADPH; assay type: ADME
T1 sequence (P05177 whole entry): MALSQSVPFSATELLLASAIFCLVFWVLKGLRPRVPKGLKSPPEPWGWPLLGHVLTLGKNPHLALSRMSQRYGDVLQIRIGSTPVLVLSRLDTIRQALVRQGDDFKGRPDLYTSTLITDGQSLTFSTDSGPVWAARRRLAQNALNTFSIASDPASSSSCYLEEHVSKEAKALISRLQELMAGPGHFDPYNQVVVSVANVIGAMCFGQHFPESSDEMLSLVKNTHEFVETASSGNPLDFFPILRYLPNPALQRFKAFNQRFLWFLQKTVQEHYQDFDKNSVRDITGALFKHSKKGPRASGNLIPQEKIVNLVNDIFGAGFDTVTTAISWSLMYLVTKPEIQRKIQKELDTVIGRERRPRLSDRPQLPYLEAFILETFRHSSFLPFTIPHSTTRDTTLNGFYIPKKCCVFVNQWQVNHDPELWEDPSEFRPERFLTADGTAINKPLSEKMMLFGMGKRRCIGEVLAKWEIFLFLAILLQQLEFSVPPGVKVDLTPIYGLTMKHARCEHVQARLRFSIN

Cytochrome P450 2C19 = Cytochrome P450 2C19 (Homo sapiens, UniProt P33261); experiment: Inhibition of CYP2C19 in human microsomes in presence of NADPH; assay type: ADME
Chain of Cytochrome P450 2C19 (P33261 whole entry): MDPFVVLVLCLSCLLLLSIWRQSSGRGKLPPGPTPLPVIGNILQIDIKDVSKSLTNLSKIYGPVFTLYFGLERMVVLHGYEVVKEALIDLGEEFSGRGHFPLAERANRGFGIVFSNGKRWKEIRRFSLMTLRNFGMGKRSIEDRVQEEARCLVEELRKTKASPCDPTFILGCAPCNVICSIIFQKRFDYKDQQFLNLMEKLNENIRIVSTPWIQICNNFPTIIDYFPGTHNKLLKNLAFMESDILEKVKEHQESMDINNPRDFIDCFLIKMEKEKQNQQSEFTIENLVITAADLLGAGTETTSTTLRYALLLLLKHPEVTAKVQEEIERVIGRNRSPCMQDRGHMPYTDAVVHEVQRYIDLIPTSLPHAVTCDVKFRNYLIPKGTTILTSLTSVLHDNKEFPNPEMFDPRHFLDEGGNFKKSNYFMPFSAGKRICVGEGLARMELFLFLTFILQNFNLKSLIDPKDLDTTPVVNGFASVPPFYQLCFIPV

Cytochrome P450 2D6 = Cytochrome P450 2D6 (Homo sapiens, UniProt P10635); experiment: Inhibition of CYP2D6 in human microsomes in presence of NADPH; assay type: ADME
Chain of Cytochrome P450 2D6 (P10635 whole entry): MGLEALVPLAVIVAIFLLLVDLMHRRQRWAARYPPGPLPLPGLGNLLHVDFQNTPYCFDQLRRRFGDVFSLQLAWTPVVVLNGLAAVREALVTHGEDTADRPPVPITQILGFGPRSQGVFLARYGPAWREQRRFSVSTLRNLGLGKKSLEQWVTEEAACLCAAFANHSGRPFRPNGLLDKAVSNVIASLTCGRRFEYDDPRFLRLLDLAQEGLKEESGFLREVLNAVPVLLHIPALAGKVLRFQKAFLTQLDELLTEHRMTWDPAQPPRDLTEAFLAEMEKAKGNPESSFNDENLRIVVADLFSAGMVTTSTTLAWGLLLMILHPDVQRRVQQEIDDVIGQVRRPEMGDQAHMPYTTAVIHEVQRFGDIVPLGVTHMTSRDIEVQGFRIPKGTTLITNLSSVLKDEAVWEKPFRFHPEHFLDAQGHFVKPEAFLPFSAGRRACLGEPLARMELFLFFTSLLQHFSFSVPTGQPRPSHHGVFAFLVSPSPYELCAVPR

In the case of `O=c1c2ccccc2oc2c(Cc3ccc4c(c3)OCO4)[nH]c(-c3nccs3)c12`, the Cmax [1] is reported as 368 ng/mL, the Activity (Mus musculus [2]) is reported as “Non-Toxic” and the CLH (Liver [3]) is reported as 56.1 µL/min/mg. It also gave a K (Liver [4]) of 0.0281, a half-life [5] of 6.02 h and an AUC(0-t) [6] of 2000 ng·h/mL. For the same compound, the IC50 [7] was > 10000 nM, the MTD at 336 h [8] was > 1500 mg/kg and the CLH (Liver [9]) was 24.8 µL/min/mg. For the same compound, the MRT last [10] was 2.14 h, the half-life at 0.5 µM [11] was 0.412 h and the half-life at 0.5 µM [12] was 0.933 h. The IC50 [13] was 2770 nM, the MRT last [14] was 4.76 h and the bioavailability [15] was 63.4%. For the same compound, the Activity (Rattus norvegicus [16]) was “Non-Toxic”, the AUC(0-t) [17] was 1700 ng·h/mL and the CLhep predicted at 0.5 µM [18] was 10.9 mL/min/kg. For the same compound, the Cmax [19] was 2360 ng/mL, the Tmax [20] was 4 h and the CLint scaled at 0.5 µM [21] was 23.9 mL/min/kg. For the same compound, the Activity (Mus musculus [22]) was “Non-Toxic”, the IC50 (Cytochrome P450 3A4) was > 25000 nM and the Activity (Mus musculus [23]) was “Non-Toxic”. For the same compound, the K (Liver [24]) was 0.0124, the Activity (Rattus norvegicus [25]) was 18.65 mmHg and the Activity (Rattus norvegicus [26]) was “Non-Toxic”. For the same compound, the CLhep predicted at 0.5 µM [27] was 35.6 mL/min/kg, the IC50 [28] was 58 nM and the AUC(0-inf) [29] was 1730 ng·h/mL. It also gave an IC50 [30] of 153 nM, an IC50 [31] of 362 nM and an IC50 (Cytochrome P450 1A2) of 7600 nM. The IC50 (Cytochrome P450 2C19) was > 20000 nM and the IC50 (Cytochrome P450 2D6) was > 25000 nM.
